pIC50: −log10 of the molar value.
Tests used:
[1] = molecular target: Histone deacetylase 3/Nuclear receptor corepressor 2 (HDAC3/NCoR2) (Homo sapiens, UniProt O15379); assay: Inhibition of C-terminal His tagged human recombinant HDAC3 (1 to 428 end residues)/N-terminal GST-tagged human NcoR2 expressed in Sf9 insect cells using Z-Lys(Ac)-AMC as substrate preincubated for 60 mins followed by substrate addition and measured after 90 mins by fluorescence based microplate reader analysis
[2] = Antiproliferative activity against human MM1.S cells assessed as cell viability incubated for 72 hrs by CellTiter-Glo assay; assay type: toxicity, cell-based
[3] = Antiproliferative activity against human MM1.S cells assessed as cell viability at 50 uM incubated for 72 hrs by CellTiter-Glo assay relative to control; assay type: toxicity, cell-based; settings: read-out: Activity
[4] = system: MM1.S; assay: Induction of degradation of HDAC6 in human MM1.S cells at 0.5 uM incubated for 24 hrs by immunoblot analysis relative to control; assay type: cell-based

Histone deacetylase 3/Nuclear receptor corepressor 2 (HDAC3/NCoR2), sequence (O15379 whole entry): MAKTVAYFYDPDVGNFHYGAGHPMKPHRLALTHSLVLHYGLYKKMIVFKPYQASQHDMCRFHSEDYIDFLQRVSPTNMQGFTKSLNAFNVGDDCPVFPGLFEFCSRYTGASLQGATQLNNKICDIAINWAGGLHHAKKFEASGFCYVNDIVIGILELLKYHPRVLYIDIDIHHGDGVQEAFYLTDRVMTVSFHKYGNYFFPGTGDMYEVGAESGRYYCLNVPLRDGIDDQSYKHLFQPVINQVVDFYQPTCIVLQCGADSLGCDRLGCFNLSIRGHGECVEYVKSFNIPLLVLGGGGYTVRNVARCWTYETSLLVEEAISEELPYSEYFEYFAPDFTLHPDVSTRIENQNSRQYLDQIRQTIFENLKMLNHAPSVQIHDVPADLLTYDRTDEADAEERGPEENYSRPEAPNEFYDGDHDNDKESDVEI
Histone deacetylase 3/Nuclear receptor corepressor 2 (HDAC3/NCoR2), sequence (Q9Y618 whole entry, further chain): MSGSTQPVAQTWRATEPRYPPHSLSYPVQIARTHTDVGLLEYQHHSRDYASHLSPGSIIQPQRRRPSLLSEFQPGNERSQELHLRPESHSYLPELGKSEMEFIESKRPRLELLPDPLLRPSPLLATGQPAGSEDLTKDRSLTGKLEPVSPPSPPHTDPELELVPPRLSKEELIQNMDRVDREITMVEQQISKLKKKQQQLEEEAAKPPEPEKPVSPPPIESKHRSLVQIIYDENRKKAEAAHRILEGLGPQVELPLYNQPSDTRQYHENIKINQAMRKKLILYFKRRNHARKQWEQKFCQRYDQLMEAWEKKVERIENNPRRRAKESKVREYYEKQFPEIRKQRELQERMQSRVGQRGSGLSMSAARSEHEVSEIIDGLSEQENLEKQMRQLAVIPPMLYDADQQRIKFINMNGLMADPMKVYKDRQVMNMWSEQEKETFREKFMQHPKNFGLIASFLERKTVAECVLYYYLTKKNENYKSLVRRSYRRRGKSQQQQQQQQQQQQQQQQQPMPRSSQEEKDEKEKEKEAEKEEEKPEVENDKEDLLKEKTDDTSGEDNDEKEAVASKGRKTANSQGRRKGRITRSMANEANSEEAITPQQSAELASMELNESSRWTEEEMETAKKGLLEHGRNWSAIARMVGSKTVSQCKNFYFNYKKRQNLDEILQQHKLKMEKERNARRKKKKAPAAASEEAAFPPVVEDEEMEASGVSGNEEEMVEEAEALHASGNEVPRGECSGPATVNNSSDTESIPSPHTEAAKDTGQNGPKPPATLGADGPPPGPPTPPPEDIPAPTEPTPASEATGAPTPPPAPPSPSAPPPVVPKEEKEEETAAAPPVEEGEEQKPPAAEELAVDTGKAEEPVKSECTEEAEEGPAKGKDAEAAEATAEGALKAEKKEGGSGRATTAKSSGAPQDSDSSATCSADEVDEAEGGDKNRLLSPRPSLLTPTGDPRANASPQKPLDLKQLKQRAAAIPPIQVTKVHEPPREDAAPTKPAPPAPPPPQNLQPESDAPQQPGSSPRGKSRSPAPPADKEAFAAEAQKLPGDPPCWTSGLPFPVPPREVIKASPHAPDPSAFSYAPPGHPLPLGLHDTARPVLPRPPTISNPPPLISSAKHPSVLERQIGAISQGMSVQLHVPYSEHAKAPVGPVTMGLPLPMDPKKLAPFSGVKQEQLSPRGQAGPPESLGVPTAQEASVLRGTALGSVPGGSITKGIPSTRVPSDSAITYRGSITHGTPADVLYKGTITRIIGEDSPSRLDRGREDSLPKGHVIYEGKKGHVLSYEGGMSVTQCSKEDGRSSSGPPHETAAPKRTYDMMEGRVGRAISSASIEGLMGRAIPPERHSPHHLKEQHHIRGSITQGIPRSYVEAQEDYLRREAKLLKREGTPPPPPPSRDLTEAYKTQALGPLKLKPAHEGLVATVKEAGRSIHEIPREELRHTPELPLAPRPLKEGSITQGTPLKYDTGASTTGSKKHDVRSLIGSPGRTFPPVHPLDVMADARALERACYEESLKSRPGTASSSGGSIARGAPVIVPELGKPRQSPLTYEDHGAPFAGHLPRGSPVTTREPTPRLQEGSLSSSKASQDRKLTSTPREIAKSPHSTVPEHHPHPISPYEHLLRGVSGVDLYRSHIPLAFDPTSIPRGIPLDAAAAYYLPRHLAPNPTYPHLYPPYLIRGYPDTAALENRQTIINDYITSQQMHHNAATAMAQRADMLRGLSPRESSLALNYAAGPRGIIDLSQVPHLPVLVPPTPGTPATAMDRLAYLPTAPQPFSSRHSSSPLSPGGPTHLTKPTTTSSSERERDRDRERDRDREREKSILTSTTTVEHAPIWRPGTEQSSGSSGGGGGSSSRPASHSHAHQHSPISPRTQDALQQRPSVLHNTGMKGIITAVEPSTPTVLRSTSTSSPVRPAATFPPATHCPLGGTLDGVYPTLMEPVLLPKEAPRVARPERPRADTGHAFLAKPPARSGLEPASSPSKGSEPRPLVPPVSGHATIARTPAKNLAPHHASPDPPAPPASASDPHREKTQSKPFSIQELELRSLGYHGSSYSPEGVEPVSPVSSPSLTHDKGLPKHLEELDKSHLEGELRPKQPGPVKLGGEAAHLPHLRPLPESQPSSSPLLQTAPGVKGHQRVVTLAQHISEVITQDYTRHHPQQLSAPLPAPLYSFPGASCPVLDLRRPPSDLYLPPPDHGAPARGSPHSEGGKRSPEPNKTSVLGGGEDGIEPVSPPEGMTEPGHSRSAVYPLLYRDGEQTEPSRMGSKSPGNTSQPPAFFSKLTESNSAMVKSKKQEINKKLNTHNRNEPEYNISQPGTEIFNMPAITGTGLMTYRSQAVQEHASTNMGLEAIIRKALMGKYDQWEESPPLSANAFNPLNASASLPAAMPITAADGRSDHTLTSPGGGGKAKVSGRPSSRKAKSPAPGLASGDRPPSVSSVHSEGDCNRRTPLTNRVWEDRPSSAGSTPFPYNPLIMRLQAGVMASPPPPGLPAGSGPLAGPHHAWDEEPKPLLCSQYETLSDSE

Compound CCNNC(=O)c1ccc(CNC(=O)c2ccc(NC(=O)CCCCCCCNc3cc4c(cc3F)C(=O)N(C3CCC(=O)NC3=O)C4=O)cc2)cc1 (configuration not stated) has a pIC50 [1] of 6.62 and an IC50 at 72 h [2] of 18400 nM.

For CCNNC(=O)c1ccc(CNC(=O)c2ccc(OCc3cn(CCCCCCNc4cc5c(cc4F)C(=O)N(C4CCC(=O)N(C)C4=O)C5=O)nn3)cc2)cc1 (configuration not stated), the pIC50 [1] was 6.27 and the viability at 72 h, 50 µM [3] was greater than 50%.

CCNNC(=O)c1ccc(CNC(=O)c2ccc(NC(=O)COCCOCC(=O)N[C@H](C(=O)N3C[C@H](O)C[C@H]3C(=O)NCc3ccc(-c4scnc4C)cc3)C(C)(C)C)cc2)cc1 showed a pIC50 [1] of 6.14 and a viability at 72 h, 50 µM [3] greater than 50%.

Compound CCNNC(=O)c1ccc(CNC(=O)c2ccc(NC(=O)COCCOCCNc3cc4c(cc3F)C(=O)N(C3CCC(=O)NC3=O)C4=O)cc2)cc1 (configuration not stated) has a pIC50 [1] of 6.42 and a viability at 72 h, 50 µM [3] greater than 50%.

Work on CCNNC(=O)c1ccc(CNC(=O)c2ccc(OCc3cn(CCCCCC(=O)N[C@H](C(=O)N4C[C@H](O)C[C@H]4C(=O)NCc4ccc(-c5scnc5C)cc4)C(C)(C)C)nn3)cc2)cc1 yielded a pIC50 [1] of 6.38 and a viability at 72 h, 50 µM [3] greater than 50%.

O=C(CCCCCCNC(=O)c1ccc(NC(=O)CCCCCCCNC(=O)COc2cccc3c2C(=O)N(C2CCC(=O)NC2=O)C3=O)cc1)NO (configuration not stated) showed a pIC50 [1] of 6.79, a viability at 72 h, 50 µM [3] greater than 50% and an Activity [4] of 94.5%.

For CCNNC(=O)c1ccc(CNC(=O)c2ccc(OCc3cn(CCOCCC(=O)N[C@H](C(=O)N4C[C@H](O)C[C@H]4C(=O)NCc4ccc(-c5scnc5C)cc4)C(C)(C)C)nn3)cc2)cc1, the pIC50 [1] was 6.61 and the viability at 72 h, 50 µM [3] was greater than 50%.

With CCNNC(=O)c1ccc(CNC(=O)c2ccc(OCc3cn(CCOCCNc4cc5c(cc4F)C(=O)N(C4CCC(=O)NC4=O)C5=O)nn3)cc2)cc1 (configuration not stated) the pIC50 [1] was 6.48 and the IC50 at 72 h [2] was 24900 nM.

For CCNNC(=O)c1ccc(CNC(=O)c2ccc(OCc3cn(CCCCCCNc4cc5c(cc4F)C(=O)N(C4CCC(=O)NC4=O)C5=O)nn3)cc2)cc1 (configuration not stated), the pIC50 [1] was 6.21 and the viability at 72 h, 50 µM [3] was greater than 50%.

In the case of CCNNC(=O)c1ccc(CNC(=O)c2ccc(NC(=O)CCCCCCC(=O)N[C@H](C(=O)N3C[C@H](O)C[C@H]3C(=O)NCc3ccc(-c4scnc4C)cc3)C(C)(C)C)cc2)cc1, the pIC50 [1] was 6.90 and the viability at 72 h, 50 µM [3] was greater than 50%.

With O=C(CCCCCCC(=O)Nc1ccccc1)NO [VORINOSTAT] the IC50 at 72 h [2] was 800 nM.

— ChEMBL document CHEMBL6103670, “Development of Ethyl-Hydrazide-Based Selective Histone Deacetylase 6 (HDAC6) PROTACs” (ACS Med Chem Lett, 2025)
